From patent US11180462B2, “Microbiocidal oxadiazole derivatives” (SYNGENTA PARTICIPATIONS AG, priority 2015, dated 2021) come the findings set out here.

For data set [1], the system named is Glomerella lagenarium (Colletotrichum lagenarium). Nature of the data set: Fungicidal activity against Glomerella lagenarium (Colletotrichum lagenarium) liquid culture / cucumber / preventative (anthracnose). The class given is cell-based. Particulars: Colletotrichum orbiculare; 20 ppm in the applied formulation; liquid culture (PDB), growth inhibition measured photometrically after 3 to 4 days; compared to untreated control; read-out: disease control. An outline of the steps: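 Photometric read-out of fungal growth after 2–7 days, expressed as percent antifungal activity versus untreated check. Cryo-stored conidia in PDB; compound at 20 ppm; dark, 24 °C, 96% RH.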

Data set [2] concerns Puccinia recondita f. Sp. Tritici. Nature of the data set: Fungicidal activity against Puccinia recondita f. sp. tritici / wheat / leaf disc preventative (brown rust). The class given is in vivo. The following applies: foliar, 200 ppm in the applied formulation, wheat leaf segments, preventative, compared to untreated control leaf disks, read-out: disease control. Put shortly:
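Compound application precedes infection: segments of wheat cv. Kanzler, sprayed at 200 ppm, are inoculated with a spore suspension after 1 day. Incubation is at 19° C. with 75% relative humidity and 12 h light/12 h darkness, and control versus untreated leaves is rated 7 to 9 days post-application.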

In the next data set the test system is Phakopsora Pachyrhizi. Nature of the data set: Fungicidal activity against Phakopsora pachyrhizi / soybean / leaf disc preventative (Asian soybean rust). The format is in vivo. Particulars: foliar, 200 ppm in the applied formulation, soybean leaf disks, compared to untreated control leaf disks, read-out: disease control. An outline of the steps: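 Preventative soybean leaf-disc test: discs on water agar sprayed with diluted formulated compound, inoculated one day later with spores on the lower surface. Held 24–36 h dark at 20°C, 75% rh, then 12 h light/day; percent disease control versus untreated discs scored 12–14 days after application.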

The test system of data set [3] is Puccinia recondita f. Sp. Tritici. Nature of the data set: Fungicidal activity against Puccinia recondita f. sp. tritici / wheat / leaf disc curative (brown rust). The format is in vivo. The following applies: foliar, 24 h, 200 ppm in the applied formulation, wheat leaf segments, curative (applied 1 day after inoculation), compared to untreated control leaf disks, read-out: disease control. An outline of the steps:
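Curative test on wheat leaf segments (cv. Kanzler) on agar, inoculated with spore suspension and held dark at 19° C, 75% RH; formulated compound in water applied 1 day after inoculation. Incubated at 19° C, 75% RH, 12 h light/12 h dark; percent disease control versus untreated scored 6 to 8 days after application.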

As usually defined, the melting point is the temperature of the solid-liquid transition.

`CON(Cc1ccc(-c2noc(C(F)(F)F)n2)cc1)C(=O)NCC(F)(F)F` [Compound 3.38, 1-methoxy-3-(2,2,2-trifluoroethyl)-1-[[4-[5-(trifluoromethyl)-1,2,4-oxadiazol-3-yl]phenyl]methyl]urea] gave a melting point of 95 to 98 °C. In addition, the inhibition of growth at 20 ppm in data set [1] was ≥ 80%. Moreover, in data set [2], the pest or weed control at 200 ppm was ≥ 80%. In the data set on Phakopsora Pachyrhizi, the pest or weed control at 200 ppm is ≥ 80%. Also, in data set [3], the pest or weed control at 200 ppm was ≥ 80%.
In turn, `CON(C)C(=O)N(O)Cc1ccc(-c2noc(C(F)(F)F)n2)cc1` [Compound 3.29, 1-hydroxy-3-methoxy-3-methyl-1-[[4-[5-(trifluoromethyl)-1,2,4-oxadiazol-3-yl]phenyl]methyl]urea] returned a melting point of 96.3 to 100.5 °C. Also, in data set [1], the inhibition of growth at 20 ppm is ≥ 80%. In addition, in data set [2], the pest or weed control at 200 ppm is ≥ 80%. For the same compound, the pest or weed control at 200 ppm in the data set on Phakopsora Pachyrhizi was ≥ 80%. The pest or weed control at 200 ppm in data set [3] was ≥ 80%.
As to `CCOC(=O)C1(NC(=O)N(Cc2ccc(-c3noc(C(F)(F)F)n3)cc2)OC)CC1` [Compound 3.48, ethyl 1-[[methoxy-[[4-[5-(trifluoromethyl)-1,2,4-oxadiazol-3-yl]phenyl]methyl]-carbamoyl]amino]-cyclopropanecarboxylate], the melting point lay within 93 to 97 °C. The inhibition of growth at 20 ppm in data set [1] is ≥ 80%. In addition, in data set [2], the pest or weed control at 200 ppm was ≥ 80%. The pest or weed control at 200 ppm in the data set with Phakopsora Pachyrhizi is ≥ 80%. Moreover, the pest or weed control at 200 ppm in data set [3] was ≥ 80%.
`CCC(=O)N(O)Cc1ccc(-c2noc(C(F)(F)F)n2)cc1` [Compound 1.603, N-hydroxy-N-[[4-[5-(trifiuoromethyl)-1,2,4-oxadiazol-3-yl]phenyl]methyl]-propanamide] came in with a melting point of 141.2 to 143.5 °C. The inhibition of growth at 20 ppm in data set [1] was ≥ 80%. Moreover, the pest or weed control at 200 ppm in data set [2] was ≥ 80%. Besides, in the data set with Phakopsora Pachyrhizi, the pest or weed control at 200 ppm is ≥ 80%. For the same compound, the pest or weed control at 200 ppm in data set [3] was ≥ 80%.
`CON(Cc1ccc(-c2noc(C(F)(F)F)n2)cc1)C(=O)NCC1CC1` [Compound 3.6, 3-(cyclopropylmethyl)-1-methoxy-1-[[4-[5-(trifluoromethyl)-1,2,4-oxadiazol-3-yl]phenyl]methyl]urea] yielded a melting point of 77 to 81.4 °C. For the same compound, the inhibition of growth at 20 ppm in data set [1] was ≥ 80%. Further, the pest or weed control at 200 ppm in data set [2] was ≥ 80%. Moreover, the pest or weed control at 200 ppm in the data set on Phakopsora Pachyrhizi is ≥ 80%. The pest or weed control at 200 ppm in data set [3] is ≥ 80%.
Regarding `CNC(=O)N(C)Cc1ccc(-c2noc(C(F)(F)F)n2)cc1` [Compound 3.37, 1,3-dimethyl-1-[[4-[5-(trifluoromethyl)-1,2,4-oxadiazol-3-yl]phenyl]methyl]urea], the melting point was in the range of 95 to 98 °C. Moreover, in data set [1], the inhibition of growth at 20 ppm was ≥ 80%. Also, the pest or weed control at 200 ppm in data set [2] was ≥ 80%. In the data set on Phakopsora Pachyrhizi, the pest or weed control at 200 ppm is ≥ 80%. Also, the pest or weed control at 200 ppm in data set [3] is ≥ 80%.
On to `O=C(C1CC1)N(Cc1ccc(-c2noc(C(F)(F)F)n2)cc1)C1COC1` [Compound 1.605, N-(oxetan-3-yl)-N-[[4-[5-(trifluoromethyl)-1,2,4-oxadiazol-3-yl]phenyl]methyl]-cyclopropane-carboxamide], for which the melting point was in the range of 89.5 to 94 °C. Moreover, the inhibition of growth at 20 ppm in data set [1] was ≥ 80%. In data set [2], the pest or weed control at 200 ppm was ≥ 80%. Besides, the pest or weed control at 200 ppm in the data set with Phakopsora Pachyrhizi is ≥ 80%. The pest or weed control at 200 ppm in data set [3] is ≥ 80%.
For `CON(Cc1ccc(-c2noc(C(F)(F)F)n2)cc1)C(=O)NC1CC1` [Compound 3.14, 3-cyclopropyl-1-methoxy-1-[[4-[5-(trifluoromethyl)-1,2,4-oxadiazol-3-yl]phenyl]methyl]urea], the melting point lay in the range of 84 to 87 °C. Moreover, the inhibition of growth at 20 ppm in data set [1] is ≥ 80%. Moreover, the pest or weed control at 200 ppm in data set [2] is ≥ 80%. In the data set on Phakopsora Pachyrhizi, the pest or weed control at 200 ppm was ≥ 80%. For the same compound, in data set [3], the pest or weed control at 200 ppm is ≥ 80%.
`CCC(=O)N(Cc1ccc(-c2noc(C(F)(F)F)n2)cc1)C1COC1` [Compound 1.604, N—(Oxetan-3-yl)-N-[[4-[5-(Trifluoromethyl)-1,2,4-Oxadiazol-3-yl]Phenyl]Methyl]Propanamide]: the melting point lay within 88.8 to 93.5 °C. In data set [1], the inhibition of growth at 20 ppm was ≥ 80%. For the same compound, in data set [2], the pest or weed control at 200 ppm is ≥ 80%. For the same compound, the pest or weed control at 200 ppm in the data set with Phakopsora Pachyrhizi is ≥ 80%. Also, the pest or weed control at 200 ppm in data set [3] is ≥ 80%.
Turning to `O=C(C1CC1)N(O)Cc1ccc(-c2noc(C(F)(F)F)n2)cc1` [Compound 1.607, N-hydroxy-N-[[4-[5-(trifiuoromethyl)-1,2,4-oxadiazol-3-yl]phenyl]methyl]-cyclopropane-carboxamide], the melting point fell in the range of 141.2 to 143.5 °C. Further, the inhibition of growth at 20 ppm in data set [1] was ≥ 80%. In data set [2], the pest or weed control at 200 ppm was ≥ 80%. The pest or weed control at 200 ppm in the data set with Phakopsora Pachyrhizi is ≥ 80%. Moreover, the pest or weed control at 200 ppm in data set [3] is ≥ 80%.
Compound `CON(Cc1ccc(-c2noc(C(F)(F)F)n2)cc1)C(N)=O` [Compound 3.32, 1-methoxy-1-[[4-[5-(trifluoromethyl)-1,2,4-oxadiazol-3-yl]phenyl]methyl]urea] had a melting point of 112.2 to 114.7 °C. Further, in data set [1], the inhibition of growth at 20 ppm is ≥ 80%. For the same compound, the pest or weed control at 200 ppm in data set [2] is ≥ 80%. Further, in the data set on Phakopsora Pachyrhizi, the pest or weed control at 200 ppm is ≥ 80%. The pest or weed control at 200 ppm in data set [3] is ≥ 80%.
`CON(Cc1ccc(-c2noc(C(F)(F)F)n2)cc1)C(=O)N[C@@H](C)C1CC1` [Compound 3.41, 3-[(1S)-1-cyclopropylethyl]-1-methoxy-1-[[4-[5-(trifluoromethyl)-1,2,4-oxadiazol-3-yl]phenyl]methyl]urea]: the melting point fell in the range of 99 to 102 °C. Moreover, the inhibition of growth at 20 ppm in data set [1] is ≥ 80%. The pest or weed control at 200 ppm in data set [2] was ≥ 80%. Moreover, the pest or weed control at 200 ppm in the data set on Phakopsora Pachyrhizi is ≥ 80%. Moreover, in data set [3], the pest or weed control at 200 ppm was ≥ 80%.
`CON(C)C(=O)N(Cc1ccc(-c2noc(C(F)(F)F)n2)cc1)OC` [Compound 3.3, 1,3-dimethoxy-1-methyl-3-[[4-[5-(trifluoromethyl)-1,2,4-oxadiazol-3-yl]phenyl]methyl]urea] came in with a melting point of 74 to 77 °C. Also, in data set [1], the inhibition of growth at 20 ppm was ≥ 80%. The pest or weed control at 200 ppm in data set [2] is ≥ 80%. Further, the pest or weed control at 200 ppm in the data set with Phakopsora Pachyrhizi was ≥ 80%. Further, the pest or weed control at 200 ppm in data set [3] is ≥ 80%.
As to `CON(Cc1ccc(-c2noc(C(F)(F)F)n2)cc1)C(=O)NCC#N` [Compound 3.39, 3-(cyanomethyl)-1-methoxy-1-[[4-[5-(trifluoromethyl)-1,2,4-oxadiazol-3-yl]phenyl]methyl]urea], the melting point fell in the range of 155 to 158 °C. Also, in data set [1], the inhibition of growth at 20 ppm was ≥ 80%. Moreover, the pest or weed control at 200 ppm in data set [2] is ≥ 80%. The pest or weed control at 200 ppm in the data set on Phakopsora Pachyrhizi was ≥ 80%. For the same compound, the pest or weed control at 200 ppm in data set [3] was ≥ 80%.
Take `CON(Cc1ccc(-c2noc(C(F)(F)F)n2)cc1)C(=O)NC1COC1` [Compound 3.55, 1-methoxy-3-(oxetan-3-yl)-1-[[4-[5-(trifluoromethyl)-1,2,4-oxadiazol-3-yl]phenyl]methyl]urea]: the melting point fell in the range of 97 to 100 °C. For the same compound, in data set [1], the inhibition of growth at 20 ppm was ≥ 80%. For the same compound, the pest or weed control at 200 ppm in data set [2] is ≥ 80%. Further, the pest or weed control at 200 ppm in the data set on Phakopsora Pachyrhizi is ≥ 80%. Moreover, in data set [3], the pest or weed control at 200 ppm is ≥ 80%.
Compound `CON(Cc1ccc(-c2noc(C(F)(F)F)n2)cc1)C(=O)NC1(C)CC1` [Compound 3.46, 1-methoxy-3-(1-methylcyclopropyl)-1-[[4-[5-(trifluoromethyl)-1,2,4-oxadiazol-3-yl]phenyl]methyl]urea] had a melting point of 93 to 97 °C. Also, the inhibition of growth at 20 ppm in data set [1] was ≥ 80%. Also, in data set [2], the pest or weed control at 200 ppm is ≥ 80%. Besides, in the data set with Phakopsora Pachyrhizi, the pest or weed control at 200 ppm was ≥ 80%. The pest or weed control at 200 ppm in data set [3] is ≥ 80%.
In turn, `COCC(=O)N(O)Cc1ccc(-c2noc(C(F)(F)F)n2)cc1` [Compound 1.606, N-hydroxy-2-methoxy-N-[[4-[5-(trifluoromethyl)-1,2,4-oxadiazol-3-yl]phenyl]methyl]-acetamide] had a melting point of 144.4 to 147.8 °C. Also, the inhibition of growth at 20 ppm in data set [1] is ≥ 80%. In addition, the pest or weed control at 200 ppm in data set [2] is ≥ 80%. In addition, the pest or weed control at 200 ppm with Phakopsora Pachyrhizi is ≥ 80%. Besides, the pest or weed control at 200 ppm in data set [3] is ≥ 80%.
For `C#CCNC(=O)N(Cc1ccc(-c2noc(C(F)(F)F)n2)cc1)OC` [Compound 3.43, 1-methoxy-3-prop-2-ynyl-1-[[4-[5-(trifluoromethyl)-1,2,4-oxadiazol-3-yl]phenyl]methyl]urea], the melting point lay in the range of 88.9 to 90.6 °C. Moreover, the inhibition of growth at 20 ppm in data set [1] was ≥ 80%. The pest or weed control at 200 ppm in data set [2] was ≥ 80%. Besides, the pest or weed control at 200 ppm in the data set with Phakopsora Pachyrhizi is ≥ 80%. Moreover, the pest or weed control at 200 ppm in data set [3] was ≥ 80%.
